Values after ≈ are worked out from the molar mass of the structure shown. “Also recorded” adds a separate entry of the source. Read-outs that look alike come from different tables or passages of the source. Blank lines part the entries; values can stand above or below the molecule they belong to.
Assays:
[1] = mice, Das et al. Reg Anesth Pain Med 2019, cited from earlier work
AMPK = assay: Activation of AMPK: Western blot of p-T172 AMPK in INS-1E insulinoma cells; assay type: cell-based; conditions: for ratio between p-T172 AMPK and non-phosphorylated AMPK: INS-1E cells, control = 1.00; for Phosphorylation of AMPK (T172) / AMPK activation (in words): cultured INS-1E cells, Western blot
Protocol: INS-1E cells were cultivated as described in Steneberg et al., JCI Insight. 2018; 3(12):e99114. https://doi.org/10.1172/jci.insight.99114, using 5% instead of 10% fetal bovine serum when plated for treatment.
Compound 3 was dissolved at 10 mM in DMSO and frozen at −20° C.
Compound 5 was dissolved at 10 mM in a 50:50 water/DMSO mixture, incubated for 15 minutes at room temperature in ultrasonic bath (VWR ultrasonic cleaner), and stored at room temperature.
The INS-1E cells were treated in serum free medium with increasing doses of Compounds 3 and 5 for 4 and 16 hours, respectively, in accordance with the methods described in Steneberg et al., JCI Insight. 2018; 3(12):e99114. https://doi.org/10.1172/jci.insight.99114.
Western blot analysis of the INS-1E cells was performed as described in Steneberg et. al., JCI Insight. 2018; 3(12):e99114. https://doi.org/10.1172/jci.insight.99114. The cell lysates were passed through a 30-gauge needle, ˜8-times and centrifuged for 10 min at +4° C. at 14000 rpm. Quantified values for AMPKα, and phosphorylated-T172 AMPKα, were normalized toward the quantified values for β-Actin.

[2] = Single dose oral pharmacokinetic study of Compounds 1 and 3 in Sprague Dawley rats; assay type: in vivo
Protocol: 10.0 mL of 2% w/v methyl cellulose solution in phosphate buffer (pH 7.5) was added to a 100 mL conical flask along with 1 g of 2 mm glass beads. The solution was vigorously stirred on a magnetic stirrer. 100 mg of Compound 1 was slowly added to the solution, and the solution was vigorously stirred for approximately 1 h. The pH of the formulation was measured to be 7.49. Each formulation was freshly prepared prior to administration to the animals. The final concentration of Compound 1 in of the formulation was 10 mg/mL. The formulation was administered at 5 mL/kg body weight.
10.0 mL of 2% w/v methyl cellulose solution in phosphate buffer (pH 7.5) was added to a 100 mL of conical flask together with 1 g of 2 mm glass beads. The solution was vigorously stirred on a magnetic stirrer. 134 mg of Compound 3 was slowly added to the solution, and the solution was vigorously stirred for approximately 1 h. The pH of the formulation was measured to be 7.44. Each formulation was freshly prepared prior to administration to the animals. The final concentration of Compound 3 in the formulation was 13.4 mg/mL, which is equivalent to 10 mg/mL of Compound 1. The formulation was administered at 5 mL/kg body weight.
The doses of 50 mg/kg and 67 mg/kg b.w. for Compound 1 and Compound 3, respectively, were selected for comparison of equimolar doses.
Adult healthy male Sprague Dawley rats aged 9 to 11 weeks were used for experimentation after a minimum three days of acclimatisation. Fed state animals were administered the formulation of Compound 1 or Compound 3 orally via gavage at a dose of 50 mg/kg or 67 mg/kg body weight, respectively.
Under mild isoflurane anesthesia, blood specimens were collected by retro-orbital puncture method using capillary tubes into pre-labeled tubes containing anticoagulant (K2EDTA: 2 mg/mL blood) during the next 72 hours post-dosing, as detailed in Table 6. For blood sampling at multiple time points, the right and left eyes were used alternatively. Collected blood specimens were centrifuged at 6000 rpm, 4° C. for 10 minutes and the plasma samples were separated and stored at −80° C. until analysis.

[3] = Stability of compounds in USP/phosphate buffer pH 7.40; assay type: physicochemical; conditions: for % remaining compared to 0.0 min: Phosphate Buffer pH 7.40, 37° C., 5 μM; for Stability compared to Compound 1 (in words): mildly basic solutions (pH 7.4)
Protocol: 5 μM solutions of Compounds 1, 3 and 5 in USP buffer (pH: 7.40) were prepared with 5 mM DMSO stock solutions.

[4] = Solubility of compounds at different pH; assay type: physicochemical; conditions: for solubility at 2 h / solubility at 20 h: 30 °C, thermodynamic from solid, read-out: Absolute Solubility; for solubility at 2 h: 2 hours incubation; for solubility at 20 h: 20 hours incubation
Protocol: Approximately 5 mg of each test compound (Compounds 1 and 5) was weighed in duplicate, and each weighed sample was transferred to a separate centrifuge tube containing 5 mL of the respective buffer. All the tubes were tightly stoppered and agitated at a constant rate at 30±1° C. using an orbital shaker.
[…] 50 μL of the buffer solution from each removed tube was transferred into a 10 mL tube and made up to the mark with diluent. Then 2.5 mL of the supernatant of each tube was transferred into a 50 mL tube and made up to […].
The nominal concentration of the solution in each 50 mL tube was 5 μg/mL.
Linearity solutions of 40 ng/mL to 10000 ng/mL were plotted.

[5] = pH 9.2, aqueous buffer, Alkaline Borate Buffer, pH 9.20
[6] = plasma Compound 1 after oral Compound 1, 50 mg/kg b.w., fed male rats
[7] = pH 4.5, aqueous buffer, Acetate Buffer, pH 4.50
[8] = pH 7.4, aqueous buffer, Phosphate Buffer, pH 7.40

SMILES: CN(C)C(=N)N=C(N)N [metformin]
Effect on pain (in words) [1]: effective at treating pain

Increase in systemic exposure of Compound 1 after oral Compound 3 compared to administration of Compound 1 ([2]; equimolar oral doses, rats): two-fold
% remaining compared to 0.0 min ([3]; 0.0 min): 100.00%
% remaining compared to 0.0 min ([3]; 15 min): 86.96%
% remaining compared to 0.0 min ([3]; 30 min): 93.61%
% remaining compared to 0.0 min ([3]; 60 min): 88.74%
% remaining compared to 0.0 min ([3]; 120 min): 75.40%
Stability compared to Compound 1 (in words) [3]: comparable stability to Compound 1
SMILES: O=C(O)CCC(=O)OCn1c(=NC(=O)c2ccc(Cl)cc2)sn(Cc2ccc(Cl)cc2)c1=O (stereo in doubt) [Compound 3, 4-({(5Z)-5-[(4-chlorobenzoyl)imino]-2-[(4-chlorophenyl)methyl]-3-oxo-1,2,4-thiadiazolidin-4-yl}methoxy)-4-oxobutanoic acid]
ratio between p-T172 AMPK and non-phosphorylated AMPK (AMPK; 2.5 μM, 4 h, 0.1% DMSO): 1.62
ratio between p-T172 AMPK and non-phosphorylated AMPK (AMPK; 5 μM, 4 h, 0.1% DMSO): 1.88
ratio between p-T172 AMPK and non-phosphorylated AMPK (AMPK; 10 μM, 4 h, 0.1% DMSO): 2.95
Phosphorylation of AMPK (T172) / AMPK activation (in words) (AMPK): increase phosphorylation of AMPK in a dose-dependent manner; also recorded: increase phosphorylated-T172 AMPK in a dose-dependent manner

solubility at 2 h [4, 5]: 29 µg/mL (≈ 76.3 µM)
solubility at 20 h [4, 5]: 44 µg/mL (≈ 116 µM)
concentration at 1 h ([2]; male, Sprague Dawley, rat, plasma, 50 mg/kg b.w., after oral Compound 1, 50 mg/kg, 1.00 h): 4240 ng/mL
concentration at 2 h ([2]; male, Sprague Dawley, rat, plasma, 50 mg/kg b.w., after oral Compound 1, 50 mg/kg, 2.00 h): 7990 ng/mL
concentration at 4 h ([2]; male, Sprague Dawley, rat, plasma, 50 mg/kg b.w., after oral Compound 1, 50 mg/kg, 4.00 h): 14000 ng/mL
concentration at 6 h ([2]; male, Sprague Dawley, rat, plasma, 50 mg/kg b.w., after oral Compound 1, 50 mg/kg, 6.00 h): 17000 ng/mL
concentration at 8 h ([2]; male, Sprague Dawley, rat, plasma, 50 mg/kg b.w., after oral Compound 1, 50 mg/kg, 8.00 h): 19300 ng/mL
concentration at 24 h ([2]; male, Sprague Dawley, rat, plasma, 50 mg/kg b.w., after oral Compound 1, 50 mg/kg, 24.00 h): 9440 ng/mL
concentration at 0 h ([2]; male, Sprague Dawley, rat, plasma, after oral Compound 1, 50 mg/kg, 0.00 h): 0 ng/mL
concentration at 0.25 h ([2]; male, Sprague Dawley, rat, plasma, after oral Compound 1, 50 mg/kg, 0.25 h): 620 ng/mL
concentration at 0.5 h ([2]; male, Sprague Dawley, rat, plasma, after oral Compound 1, 50 mg/kg, 0.50 h): 1980 ng/mL
concentration at 48 h ([2]; male, Sprague Dawley, rat, plasma, after oral Compound 1, 50 mg/kg, 48.00 h): 720 ng/mL
concentration at 72 h ([2]; male, Sprague Dawley, rat, plasma, after oral Compound 1, 50 mg/kg, 72.00 h): 0 ng/mL
AUCextrap [2, 6]: 2.33 ± 1.74%
AUCinf [2, 6]: 458.31 ± 154.77 µg·h/mL
AUClast [2, 6]: 449.40 ± 157.75 µg·h/mL
Cmax [2, 6]: 19600 ± 5540 ng/mL
MRTlast [2, 6]: 14.78 ± 0.68 h
T1/2 [2, 6]: 8.42 ± 1.47 h
Tmax [2, 6]: 7.33 ± 1.16 h
% remaining compared to 0.0 min ([3]; 0.0 min): 100.00%
% remaining compared to 0.0 min ([3]; 15 min): 97.62%
% remaining compared to 0.0 min ([3]; 30 min): 101.31%
% remaining compared to 0.0 min ([3]; 60 min): 99.41%
% remaining compared to 0.0 min ([3]; 120 min): 106.18%
SMILES: O=C(Nc1nc(=O)n(Cc2ccc(Cl)cc2)s1)c1ccc(Cl)cc1 [Compound 1, 4-chloro-N-[2-[(4-chlorophenyl)methyl]-3-oxo-1,2,4-thiadiazol-5-yl]benzamide]
Effect on pain (in words) ([1]; listed as compound of formula II): effective at treating pain; also recorded: capable of treating pain

solubility at 2 h [4, 7]: 15 µg/mL
solubility at 20 h [4, 7]: 15 µg/mL
solubility at 2 h [4, 8]: 119 µg/mL
solubility at 20 h [4, 8]: 98 µg/mL
solubility at 2 h [4, 5]: 720 µg/mL
solubility at 20 h [4, 5]: 1240 µg/mL
solubility at 2 h ([4]; Ultrapure water): 419 µg/mL
solubility at 20 h ([4]; Ultrapure water): 36 µg/mL
Solubility relative to Compound 1 ([4]; basic solution): up to 30 times
Solubility compared to Compound 1 (in words) ([4]; basic solutions (pH>7) and mildly acidic conditions): higher solubility compared to Compound 1
% remaining compared to 0.0 min ([3]; 0.0 min): 100.00%
% remaining compared to 0.0 min ([3]; 15 min): 103.92%
% remaining compared to 0.0 min ([3]; 30 min): 107.58%
% remaining compared to 0.0 min ([3]; 60 min): 107.88%
% remaining compared to 0.0 min ([3]; 120 min): 97.30%
Stability compared to Compound 1 (in words) [3]: comparable stability to Compound 1
SMILES: O=C(/N=c1\sn(Cc2ccc(Cl)cc2)c(=O)n1COP(=O)([O-])[O-])c1ccc(Cl)cc1.[Na+].[Na+] [Compound 5, disodium {(5Z)-5-[(4-chlorobenzoyl)imino]-2-[(4-chlorophenyl)methyl]-3-oxo-1,2,4-thiadiazolidin-4-yl}methyl phosphate]
ratio between p-T172 AMPK and non-phosphorylated AMPK (AMPK; 2.5 μM, 16 h, 0.05% DMSO): 1.29
ratio between p-T172 AMPK and non-phosphorylated AMPK (AMPK; 5 μM, 16 h, 0.05% DMSO): 1.62
ratio between p-T172 AMPK and non-phosphorylated AMPK (AMPK; 10 μM, 16 h, 0.05% DMSO): 3.21
Phosphorylation of AMPK (T172) / AMPK activation (in words) (AMPK; phosphate): increase phosphorylation of AMPK in a dose-dependent manner; also recorded: increase phosphorylated-T172 AMPK in a dose-dependent manner

— patent publication US12643918B2, “Thiadiazolone derivatives and their use as AMPK agonists for the treatment of diabetes and related disorders” (Betagenon AB, priority 2020, dated 2026)
